# Source: US8183262B2, “Pyridine derivatives as mGluR2 antagonists” (Hoffmann-La Roche Inc., priority 2007, dated 2012)
row,SMILES,melting point [°C]
1,"Nc1ccc(-c2cn(-c3nc(-c4ccc(Cl)c(Cl)c4)cc(C(F)(F)F)n3)cn2)cn1 [Example 102, 5-{1-[4-(3,4-Dichloro-phenyl)-6-trifluoromethyl-pyrimidin-2-yl]-1H-imidazol-4-yl}-pyridin-2-ylamine]",282.5
2,"Cc1cc(-c2cc(C(F)(F)F)nc(-n3cnc(-c4ccc(N)nc4)c3)n2)ccc1Cl [Example 104, 5-{1-[4-(4-Chloro-3-methyl-phenyl)-6-trifluoromethyl-pyrimidin-2-yl]-1H-imidazol-4-yl}-pyridin-2-ylamine]",276
3,"Cc1cc(-c2cc(C(F)(F)F)nc(-c3cccc(-c4ccc(N)nc4)c3)n2)ccc1Cl [Example 105, 5-{3-[4-(4-Chloro-3-methyl-phenyl)-6-trifluoromethyl-pyrimidin-2-yl]-phenyl}-pyridin-2-ylamine]",168.5
4,"Cc1cc(-c2cc(C(F)(F)F)nc(-c3nc(-c4cccc(S(N)(=O)=O)c4)no3)n2)ccc1Cl [Example 106, 3-{5-[4-(4-Chloro-3-methyl-phenyl)-6-trifluoromethyl-pyrimidin-2-yl]-[1,2,4]oxadiazol-3-yl}-benzenesulfonamide]",246
5,"Cc1cc(-c2cc(C(F)(F)F)nc(-c3nc(-c4ccc(N)nc4)no3)n2)ccc1Cl [Example 107, 5-{5-[4-(4-Chloro-3-methyl-phenyl)-6-trifluoromethyl-pyrimidin-2-yl]-[1,2,4]oxadiazol-3-yl}-pyridin-2-ylamine]",199.5
6,"Cc1cc(-c2cc(C(F)(F)F)nc(-c3ccnc(-c4ccc(N)nc4)c3)n2)ccc1Cl [Example 108, 4-[4-(4-Chloro-3-methyl-phenyl)-6-trifluoromethyl-pyrimidin-2-yl]-[2,3′]bipyridinyl-6′-ylamine]",207
7,"Cc1cc(-c2ccc(Cl)cc2)nc(-c2cccc(-c3ccc(N)nc3)c2)n1 [Example 109, 5-{3-[4-(4-Chloro-phenyl)-6-methyl-pyrimidin-2-yl]-phenyl}-pyridin-2-ylamine]",168.5
8,"Cc1cc(-c2ccc(Cl)cc2)nc(-c2cccc(-c3cnc(N)nc3)c2)n1 [Example 110, 5-{3-[4-(4-Chloro-phenyl)-6-methyl-pyrimidin-2-yl]-phenyl}-pyrimidin-2-ylamine]",228
9,"Nc1ccc(-c2cn(-c3nc(-c4ccc(C(F)(F)F)cc4)cc(C(F)(F)F)n3)cn2)cc1 [Example 111, 4-{1-[4-Trifluoromethyl-6-(4-trifluoromethyl-phenyl)-pyrimidin-2-yl]-1H-imidazol-4-yl}-phenylamine]",270
10,"Cc1cc(-c2ccc(Cl)cc2)nc(-c2ccnc(-c3ccc(N)nc3)c2)n1 [Example 112, 4-[4-(4-Chloro-phenyl)-6-methyl-pyrimidin-2-yl]-[2,3′]bipyridinyl-6′-ylamine]",199
11,"Cc1cc(-c2ccc(C(F)(F)F)cc2)nc(-c2ccnc(-c3ccc(N)nc3)c2)n1 [Example 113, 4-[4-Methyl-6-(4-trifluoromethyl-phenyl)-pyrimidin-2-yl]-[2,3′]bipyridinyl-6′-ylamine]",232
12,"Cc1cc(-c2ccc(C(F)(F)F)cc2)nc(-c2cccc(-c3cnc(N)nc3)c2)n1 [Example 115, 5-{3-[4-Methyl-6-(4-trifluoromethyl-phenyl)-pyrimidin-2-yl]-phenyl}-pyrimidin-2-ylamine]",290
13,"Cc1cc(-c2ccc(C(F)(F)F)cc2)nc(-c2cccc(-c3ccc(N)nc3)c2)n1 [Example 116, 5-{3-[4-Methyl-6-(4-trifluoromethyl-phenyl)-pyrimidin-2-yl]-phenyl}-pyridin-2-ylamine]",224
14,"Nc1ccc(-c2cccc(-c3nc(-c4ccc(C(F)(F)F)cc4)cc(C(F)(F)F)n3)c2)cc1 [Example 117, 3′-[4-Trifluoromethyl-6-(4-trifluoromethyl-phenyl)-pyrimidin-2-yl]-biphenyl-4-ylamine]",186
15,"Cc1cc(-c2ccc(C(F)(F)F)cc2)nc(-c2nc(-c3ccc(S(N)(=O)=O)cc3)no2)n1 [Example 118, 4-{5-[4-Methyl-6-(4-trifluoromethyl-phenyl)-pyrimidin-2-yl]-[1,2,4]oxadiazol-3-yl}-benzenesulfonamide]",326

# Further lines, results first:
row,melting point [°C],SMILES
1,207,"Cc1cc(-c2cc(C(F)(F)F)nc(-c3cccc(-c4ccc(N)nc4)c3)n2)ccc1C(F)(F)F [Example 119, 5-{3-[4-(3-Methyl-4-trifluoromethyl-phenyl)-6-trifluoromethyl-pyrimidin-2-yl]-phenyl}-pyridin-2-ylamine]"
2,290,"Cc1cc(-c2cc(C(F)(F)F)nc(-n3cnc(-c4ccc(N)nc4)c3)n2)ccc1C(F)(F)F [Example 120, 5-{1-[4-(3-Methyl-4-trifluoromethyl-phenyl)-6-trifluoromethyl-pyrimidin-2-yl]-1H-imidazol-4-yl}-pyridin-2-ylamine]"
3,223,"Cc1cc(-c2cc(C(F)(F)F)nc(-c3ccnc(-c4ccc(N)nc4)c3)n2)ccc1C(F)(F)F [Example 121, 4-[4-(3-Methyl-4-trifluoromethyl-phenyl)-6-trifluoromethyl-pyrimidin-2-yl]-[2,3′]bipyridinyl-6′-ylamine]"
4,247.5,"Cc1cc(-c2ccc(C(F)(F)F)c(C)c2)nc(-n2cnc(-c3ccc(N)nc3)c2)n1 [Example 122, 5-{1-[4-Methyl-6-(3-methyl-4-trifluoromethyl-phenyl)-pyrimidin-2-yl]-1H-imidazol-4-yl}-pyridin-2-ylamine]"
5,248,"Cc1cc(-c2ccc(C(F)(F)F)c(C)c2)nc(-n2cnc(-c3cnc(N)nc3)c2)n1 [Example 123, 5-{1-[4-Methyl-6-(3-methyl-4-trifluoromethyl-phenyl)-pyrimidin-2-yl]-1H-imidazol-4-yl}-pyrimidin-2-ylamine]"
6,244,"Cc1cc(-c2cc(C(F)(F)F)nc(-c3cccc(-c4cnc(N)nc4)c3)n2)ccc1C(F)(F)F [Example 124, 5-{3-[4-(3-Methyl-4-trifluoromethyl-phenyl)-6-trifluoromethyl-pyrimidin-2-yl]-phenyl}-pyrimidin-2-ylamine]"
7,297,"Cc1cc(-c2cc(C(F)(F)F)nc(-n3cnc(-c4cnc(N)nc4)c3)n2)ccc1C(F)(F)F [Example 125, 5-{1-[4-(3-Methyl-4-trifluoromethyl-phenyl)-6-trifluoromethyl-pyrimidin-2-yl]-1H-imidazol-4-yl}-pyrimidin-2-ylamine]"
8,240.5,"Cc1cc(-c2ccc(C(F)(F)F)cc2)nc(-c2nc(-c3cccc(S(N)(=O)=O)c3)no2)n1 [Example 126, 3-{5-[4-Methyl-6-(4-trifluoromethyl-phenyl)-pyrimidin-2-yl]-[1,2,4]oxadiazol-3-yl}-benzenesulfonamide]"
9,216.5,"Cc1cc(-c2ccc(C(F)(F)F)cc2)nc(-c2nc(-c3ccc(N)nc3)no2)n1 [Example 127, 5-{5-[4-Methyl-6-(4-trifluoromethyl-phenyl)-pyrimidin-2-yl]-[1,2,4]oxadiazol-3-yl}-pyridin-2-ylamine]"
10,261,"Cc1cc(-c2cc(C(F)(F)F)nc(-c3nc(-c4ccc(S(N)(=O)=O)cc4)no3)n2)ccc1C(F)(F)F [Example 128, 4-{5-[4-(3-Methyl-4-trifluoromethyl-phenyl)-6-trifluoromethyl-pyrimidin-2-yl]-[1,2,4]oxadiazol-3-yl}-benzenesulfonamide]"
11,223.5,"Cc1cc(-c2cc(C(F)(F)F)nc(-c3nc(-c4cccc(S(N)(=O)=O)c4)no3)n2)ccc1C(F)(F)F [Example 129, 3-{5-[4-(3-Methyl-4-trifluoromethyl-phenyl)-6-trifluoromethyl-pyrimidin-2-yl]-[1,2,4}oxadiazol-3-yl]-benzenesulfonamide]"
12,223,"Cc1cc(-c2cc(C(F)(F)F)nc(-c3nc(-c4ccc(N)nc4)no3)n2)ccc1C(F)(F)F [Example 130, 5-{5-[4-(3-Methyl-4-trifluoromethyl-phenyl)-6-trifluoromethyl-pyrimidin-2-yl]-[1,2,4]oxadiazol-3-yl}-pyridin-2-ylamine]"
13,188,"Cc1cc(-c2ccc(C(F)(F)F)c(C)c2)nc(-c2ccnc(-c3ccc(N)nc3)c2)n1 [Example 131, 4-[4-Methyl-6-(3-methyl-4-trifluoromethyl-phenyl)-pyrimidin-2-yl]-[2,3′]bipyridinyl-6′-ylamine]"
14,153,"Cc1cc(-c2ccc(C(F)(F)F)c(C)c2)nc(-c2cccc(-c3ccc(N)nc3)c2)n1 [Example 132, 5-{3-[4-Methyl-6-(3-methyl-4-trifluoromethyl-phenyl)-pyrimidin-2-yl]-phenyl}-pyridin-2-ylamine]"
15,220,"Nc1ccc(-c2cccc(-c3nc(-c4ccc(C(F)(F)F)c(OCC(F)(F)F)c4)cc(C(F)(F)F)n3)c2)cn1 [Example 133, 5-(3-{4-[3-(2,2,2-Trifluoro-ethoxy)-4-trifluoromethyl-phenyl]-6-trifluoromethyl-pyrimidin-2-yl}-phenyl)-pyridin-2-ylamine]"
16,285,"Nc1ccc(-c2cn(-c3nc(-c4ccc(C(F)(F)F)c(OCC(F)(F)F)c4)cc(C(F)(F)F)n3)cn2)cn1 [Example 134, 5-(1-{4-[3-(2,2,2-Trifluoro-ethoxy)-4-trifluoromethyl-phenyl]-6-trifluoromethyl-pyrimidin-2-yl}-1H-imidazol-4-yl)-pyridin-2-ylamine]"
17,223,"Nc1ccc(-c2cc(-c3nc(-c4ccc(C(F)(F)F)c(OCC(F)(F)F)c4)cc(C(F)(F)F)n3)ccn2)cn1 [Example 135, 4-{4-[3-(2,2,2-Trifluoro-ethoxy)-4-trifluoromethyl-phenyl]-6-trifluoromethyl-pyrimidin-2-yl}-[2,3′]bipyridinyl-6′-ylamine]"
18,297,"Cc1cc(-c2ccc(Cl)cc2)nc(-c2nc(-c3ccc(S(N)(=O)=O)cc3)no2)n1 [Example 136, 4-{5-[4-(4-Chloro-phenyl)-6-methyl-pyrimidin-2-yl]-[1,2,4]oxadiazol-3-yl}-benzenesulfonamide]"
19,258,"Cc1cc(-c2ccc(Cl)cc2)nc(-c2nc(-c3ccc(N)nc3)no2)n1 [Example 137, 5-{5-[4-(4-Chloro-phenyl)-6-methyl-pyrimidin-2-yl]-[1,2,4]oxadiazol-3-yl}-pyridin-2-ylamine]"
